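Cultured in 96-well plates, cells were exposed to test compound for 48 hours across five concentrations. The concentration for full growth arrest is given as TGI.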
Columns and labels:
Assay in all cases: DTP human tumour cell line panel, 48 h
[1] = test system: 786-0 renal
[2] = test system: A498 renal
[3] = test system: A549 NSCLC
[4] = test system: ACHN renal
[5] = test system: CAKI-1 renal
[6] = test system: CCRF-CEM leukemia
[7] = test system: COLO 205 colon
[8] = test system: DLD-1 colon
[9] = test system: DMS 114 small cell lung
[10] = test system: DMS 273 small cell lung
[11] = test system: HCC-2998 colon
[12] = test system: HCT-116 colon
[13] = test system: HCT-15 colon
[14] = test system: HL-60(TB) leukemia
[15] = test system: HOP-18 NSCLC
[16] = test system: HOP-62 NSCLC
[17] = test system: HOP-92 NSCLC
[18] = test system: HT29 colon
[19] = test system: IGROV1 ovarian
[20] = test system: K-562 leukemia
[21] = test system: KM12 colon
[22] = test system: KM20L2 colon
[23] = test system: LOX IMVI melanoma
[24] = test system: LXFL 529 NSCLC
[25] = test system: M14 melanoma
[26] = test system: M19-MEL melanoma
[27] = test system: MALME-3M melanoma
[28] = test system: MOLT-4 leukemia
[29] = test system: NCI-H226 lung
[30] = test system: NCI-H23 lung
[31] = test system: NCI-H460 lung
[32] = test system: OVCAR-3 ovarian
[33] = test system: OVCAR-4 ovarian
[34] = test system: OVCAR-5 ovarian
[35] = test system: OVCAR-8 ovarian
[36] = test system: RPMI-8226 leukemia
[37] = test system: RXF 393 renal
[38] = test system: SF-268 CNS
[39] = test system: SF-295 CNS
[40] = test system: SF-539 CNS
[41] = test system: SK-MEL-28 melanoma
[42] = test system: SK-MEL-5 melanoma
[43] = test system: SK-OV-3 ovarian
[44] = test system: SN12C renal
[45] = test system: SNB-19 CNS
[46] = test system: SNB-75 CNS
[47] = test system: SNB-78 CNS
[48] = test system: SR leukemia
[49] = test system: SW-620 colon
[50] = test system: TK-10 renal
[51] = test system: U251 CNS
[52] = test system: UACC-257 melanoma
[53] = test system: UACC-62 melanoma
[54] = test system: UO-31 renal
[55] = test system: XF 498 CNS
[56] = test system: EKVX NSCLC
[57] = test system: NCI-H522 lung
[58] = test system: SK-MEL-2 melanoma

Which results are given for `Cc1ccc(/C=C/C(=O)CCN(C)C)cc1`?
TGI [1]: 32.6 µM; TGI [2]: > 100 µM; TGI [3]: 38.4 µM; TGI [4]: 32.9 µM; TGI [5]: 26.8 µM; TGI [6]: 72.4 µM; TGI [7]: 29.4 µM; TGI [8]: 33.7 µM; TGI [9]: 32.5 µM; TGI [10]: 25.6 µM; TGI [11]: 32.1 µM; TGI [12]: 33.1 µM; TGI [13]: 38.2 µM; TGI [14]: 47 µM; TGI [15]: 38.4 µM; TGI [16]: > 100 µM; TGI [17]: 38.1 µM; TGI [18]: 33.4 µM; TGI [19]: 37.1 µM; TGI [20]: > 100 µM; TGI [21]: 14 µM; TGI [22]: 37.2 µM; TGI [23]: 31.6 µM; TGI [24]: 34.2 µM; TGI [25]: 38.7 µM; TGI [26]: 38.7 µM; TGI [27]: 39.7 µM; TGI [28]: 51.7 µM; TGI [29]: 49.4 µM; TGI [30]: 79 µM; TGI [31]: 65.6 µM; TGI [32]: 39.4 µM; TGI [33]: 30.4 µM; TGI [34]: > 100 µM; TGI [35]: 62.2 µM; TGI [36]: > 100 µM; TGI [37]: 41.6 µM; TGI [38]: 47.5 µM; TGI [39]: > 100 µM; TGI [40]: 31.3 µM; TGI [41]: 33.8 µM; TGI [42]: 34.4 µM; TGI [43]: > 100 µM; TGI [44]: 32.1 µM; TGI [45]: > 100 µM; TGI [46]: 35.1 µM; TGI [47]: 87 µM; TGI [48]: 62.7 µM; TGI [49]: 30.2 µM; TGI [50]: 30.2 µM; TGI [51]: 30 µM; TGI [52]: 31 µM; TGI [53]: 28.2 µM; TGI [54]: 33.8 µM; TGI [55]: 28.5 µM

What does the source list for `COC(=O)C(CCCN1C(=O)c2ccccc2C1=O)C(=O)OC`?
TGI [1]: > 100 µM; TGI [2]: > 100 µM; TGI [3]: > 100 µM; TGI [4]: > 100 µM; TGI [5]: > 100 µM; TGI [6]: > 100 µM; TGI [7]: > 100 µM; TGI [8]: > 100 µM; TGI [9]: > 100 µM; TGI [10]: > 100 µM; TGI [56]: > 100 µM; TGI [11]: > 100 µM; TGI [12]: > 100 µM; TGI [13]: > 100 µM; TGI [14]: > 100 µM; TGI [15]: > 100 µM; TGI [16]: > 100 µM; TGI [17]: > 100 µM; TGI [18]: > 100 µM; TGI [19]: > 100 µM; TGI [20]: > 100 µM; TGI [21]: > 100 µM; TGI [22]: > 100 µM; TGI [23]: > 100 µM; TGI [24]: > 100 µM; TGI [25]: > 100 µM; TGI [26]: > 100 µM; TGI [27]: > 100 µM; TGI [28]: > 100 µM; TGI [29]: > 100 µM; TGI [30]: > 100 µM; TGI [31]: > 100 µM; TGI [57]: > 100 µM; TGI [32]: > 100 µM; TGI [33]: > 100 µM; TGI [34]: > 100 µM; TGI [35]: > 100 µM; TGI [37]: > 100 µM; TGI [38]: > 100 µM; TGI [39]: > 100 µM; TGI [40]: > 100 µM; TGI [58]: > 100 µM; TGI [41]: > 100 µM; TGI [42]: > 100 µM; TGI [43]: > 100 µM; TGI [44]: > 100 µM; TGI [45]: > 100 µM; TGI [46]: > 100 µM; TGI [47]: > 100 µM; TGI [49]: > 100 µM; TGI [50]: > 100 µM; TGI [51]: > 100 µM; TGI [52]: > 100 µM; TGI [53]: > 100 µM; TGI [54]: > 100 µM; TGI [55]: > 100 µM

Which results are given for `CCCCCC[C@@H]1CCC2C(CO)[C@@H](O)CC[C@@H]2C1` (some centres not stated)?
TGI [1]: 33.5 µM; TGI [3]: 32.1 µM; TGI [4]: 33.6 µM; TGI [6]: 79.9 µM; TGI [7]: 35.1 µM; TGI [8]: 34.6 µM; TGI [9]: 37.5 µM; TGI [10]: 39.4 µM; TGI [56]: 32.7 µM; TGI [11]: 37 µM; TGI [12]: 32.1 µM; TGI [13]: 33.4 µM; TGI [15]: 43 µM; TGI [16]: 33 µM; TGI [18]: 34.1 µM; TGI [19]: 34.7 µM; TGI [20]: > 100 µM; TGI [21]: 36.2 µM; TGI [22]: 33.7 µM; TGI [23]: 34.6 µM; TGI [24]: 32.6 µM; TGI [25]: 31.3 µM; TGI [26]: 35.3 µM; TGI [27]: 36.1 µM; TGI [28]: 57 µM; TGI [29]: 39.7 µM; TGI [30]: 30.8 µM; TGI [31]: 30.4 µM; TGI [57]: 31.5 µM; TGI [32]: 29.3 µM; TGI [33]: 30.6 µM; TGI [34]: 33.9 µM; TGI [35]: 33.4 µM; TGI [36]: 63.2 µM; TGI [38]: 32.6 µM; TGI [39]: 30.3 µM; TGI [40]: 33.1 µM; TGI [58]: 43.3 µM; TGI [41]: 34.3 µM; TGI [42]: 34.2 µM; TGI [44]: 30.6 µM; TGI [45]: 35.8 µM; TGI [46]: 37.6 µM; TGI [47]: 41.3 µM; TGI [48]: 53.6 µM; TGI [49]: 39.2 µM; TGI [51]: 33.9 µM; TGI [52]: 31 µM; TGI [53]: 38.6 µM; TGI [54]: 38.7 µM; TGI [55]: 39.8 µM

— PubChem BioAssay (NCI)
